Converted amounts (≈) assume the structure as drawn. Where two headings read alike, the source gives them in different places. Positions of bridges follow the written chain, without caps; N, C: chain ends. Non-standard residues stand in square brackets, D forms with d. Residues, ends and D or L forms follow the SMILES beside them. Lys(N3) = [N-]=[N+]=NCCCC[C@H](N)C(=O)O; R8 = C=CCCCCCC[C@@](C)(N)C(=O)O; Cba = N[C@@H](CC1CCC1)C(=O)O; S5 = C=CCCC[C@](C)(N)C(=O)O; Ahx = NCCCCCC(=O)O; βAla = NCCC(=O)O
Experiments:
in vitro = test: in vitro
Outline: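 Azido-peptide permeability was read as loss of NanoBRET signal (donor 450 nm, acceptor 610 nm) after adding NanoBret618-azide at 10 μM final.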

[1] = Lactate dehydrogenase (LDH) release assay; assay type: cell-based
Outline: (§1)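 Read-out was lactate dehydrogenase release, reflecting loss of membrane integrity, in reporter-engineered HCT116 cells (p53-responsive β-lactamase) seeded at 8000 cells per well. Final DMSO was 0.5%, and reported values are geometric means from three or more biological repeats.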

HCT116 cells = test: Lactate dehydrogenase (LDH) release assay; assay type: cell-based
Outline: as §1

[2] = Experimental LogD (partition coefficient); settings: for logD: not stated, Partition Coeff LogD
[3] = Solubility assay (kinetic solubility, PBS pH 7); assay type: physicochemical; settings: pH 7, PBS; for solubility kinetic: pH 7, aqueous buffer, kinetic from dmso stock, read-out: Solubility
Outline: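 Next, measure peak areas of sample and standard. Finally, multiply their ratio by the standard concentration to obtain solubility (µM).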

[4] = Nanoclick permeability assay EC50

SMILES	cell entry EC50 (in vitro; [4]) [nM]	EPSA (physchem) [A^2]	EC50 ([1]; LDH: Cytotoxicity assay EC50) [nM]	LDH: Cytotoxicity assay % Effect (HCT116 cells) [%]	logD [2]	solubility kinetic [3] [µM]	cell entry EC50 (in vitro) [nM]	EC50 ([1]; 0% FBS 4Hr, read-out: LDH: Cytotoxicity assay EC50) [nM]	LDH: Cytotoxicity assay % Effect (HCT116 cells; 0% FBS 4Hr) [%]	LDH: Cytotoxicity assay % Effect (HCT116 cells; 0% FBS 16Hr) [%]	Solubility [3]	Partition Coeff LogD [2]
CC(=O)N[C@@H](CCCCN=[N+]=[N-])C(=O)N[C@@H](CCCCN)C(=O)NCCCCCC(=O)N[C@H](C(=O)N[C@@H](CO)C(=O)N[C@@H](Cc1ccccc1)C(=O)N[C@]1(C)CCCCCCC=CCCC[C@@](C)(C(=O)N[C@@H](CCC(=O)O)C(=O)N[C@@H](CC(N)=O)C(=O)N[C@@H](Cc2ccccc2)C(N)=O)NC(=O)[C@H](CC(C)C)NC(=O)[C@H](CC(C)C)NC(=O)[C@H](C)NC(=O)[C@H](Cc2c[nH]c3ccccc23)NC(=O)[C@H](Cc2ccc(O)cc2)NC(=O)[C@H](CCC(=O)O)NC1=O)[C@@H](C)O [MP-084] (Ac-[Lys(N3)]K[Ahx]TSF[R8]EYWALL[S5]ENF-NH2; staple 7-14)	74.5	187	> 50700	0.08783	2.56	2 (≈ 4.5 µg/mL)						
CC(=O)N[C@@H](CCCCN=[N+]=[N-])C(=O)NCCC(=O)N[C@@H](CC(C)C)C(=O)N[C@@H](Cc1c[nH]cn1)C(=O)N[C@@H](Cc1ccccc1)C(=O)N[C@]1(C)CCCCCCC=CCCC[C@@](C)(C(=O)N[C@@H](CO)C(=O)N[C@@H](C)C(=O)N[C@@H](C)C(N)=O)NC(=O)[C@H](CC2CCC2)NC(=O)[C@H](CCC(N)=O)NC(=O)[C@H](C)NC(=O)[C@H](Cc2c[nH]c3ccccc23)NC(=O)[C@H](Cc2ccc(O)cc2)NC(=O)[C@H](CCC(=O)O)NC1=O [MP-174, AZIDE-ATSP-7041 (T2H)]		225			2.84		50.6	> 50000	2.115	21.18		
CC(=O)N[C@@H](CCCCN=[N+]=[N-])C(=O)NCCC(=O)N[C@@H](CC(C)C)C(=O)N[C@H](C(=O)N[C@@H](Cc1ccccc1)C(=O)N[C@]1(C)CCCCCCC=CCCC[C@@](C)(C(=O)N[C@@H](CO)C(=O)N[C@@H](Cc2ccccc2)C(=O)N[C@@H](Cc2ccccc2)C(N)=O)NC(=O)[C@H](CC2CCC2)NC(=O)[C@H](CCC(N)=O)NC(=O)[C@H](C)NC(=O)[C@H](Cc2c[nH]c3ccccc23)NC(=O)[C@H](Cc2ccc(O)cc2)NC(=O)[C@H](Cc2c[nH]c3ccccc23)NC1=O)[C@@H](C)O [MP-542] (Ac-[Lys(N3)][βAla]LTF[R8]WYWAQ[Cba][S5]SFF-NH2; staple 6-13)	93.2	242	> 50600		4.46						Poorly Behaved	
CSCC[C@H](NC(=O)[C@H](CO)NC(=O)[C@]1(C)CCCC=CCCCCCC[C@@](C)(NC(=O)[C@H](Cc2ccccc2)NC(=O)[C@H](Cc2ccc(O)cc2)NC(=O)[C@H](CC(C)C)NC(=O)CCNC(=O)[C@H](CCCCN=[N+]=[N-])NC(C)=O)C(=O)N[C@@H](CCC(=O)O)C(=O)N[C@@H](Cc2ccc(O)cc2)C(=O)N[C@@H](Cc2c[nH]c3ccccc23)C(=O)N[C@@H](C)C(=O)N[C@@H](CCC(N)=O)C(=O)N[C@@H](CC2CCC2)C(=O)N1)C(=O)N[C@@H](CC(C)C)C(N)=O [MP-543] (Ac-[Lys(N3)][βAla]LYF[R8]EYWAQ[Cba][S5]SML-NH2; staple 6-13)	139	234	> 50600		3.56	30.5 (≈ 65.1 µg/mL)						
CC(=O)N[C@@H](CCCCN=[N+]=[N-])C(=O)NCCC(=O)N[C@@H](CC(C)C)C(=O)N[C@H](C(=O)N[C@@H](Cc1ccccc1)C(=O)N[C@]1(C)CCCCCCC=CCCC[C@@](C)(C(=O)N[C@@H](CO)C(=O)N[C@@H](C)C(=O)N[C@@H](CC(C)C)C(N)=O)NC(=O)[C@H](CC2CCC2)NC(=O)[C@H](CCC(N)=O)NC(=O)[C@H](C)NC(=O)[C@H](Cc2c[nH]c3ccccc23)NC(=O)[C@H](Cc2c[nH]c3ccccc23)NC(=O)[C@H](Cc2c[nH]c3ccccc23)NC1=O)[C@@H](C)O [MP-544] (Ac-[Lys(N3)][βAla]LTF[R8]WWWAQ[Cba][S5]SAL-NH2; staple 6-13)	124	227	> 50600								Poorly Behaved	Poorly Behaved
CC(=O)N[C@@H](CCCCN=[N+]=[N-])C(=O)NCCC(=O)N[C@@H](CC(C)C)C(=O)N[C@H](C(=O)N[C@@H](Cc1ccccc1)C(=O)N[C@]1(C)CCCCCCC=CCCC[C@@](C)(C(=O)N[C@@H](CO)C(=O)N[C@@H](Cc2ccccc2)C(=O)N[C@@H](Cc2ccccc2)C(N)=O)NC(=O)[C@H](CC2CCC2)NC(=O)[C@H](CCC(N)=O)NC(=O)[C@H](CO)NC(=O)[C@H](Cc2c[nH]c3ccccc23)NC(=O)[C@H](Cc2ccc(O)cc2)NC(=O)[C@H](CCC(=O)O)NC1=O)[C@@H](C)O [MP-545] (Ac-[Lys(N3)][βAla]LTF[R8]EYWSQ[Cba][S5]SFF-NH2; staple 6-13)	137	241	> 50600								Poorly Behaved	Poorly Behaved
CC(=O)N[C@@H](CCCCN=[N+]=[N-])C(=O)NCCC(=O)N[C@@H](CC(C)C)C(=O)N[C@@H](Cc1c[nH]c2ccccc12)C(=O)N[C@@H](Cc1ccccc1)C(=O)N[C@]1(C)CCCCCCC=CCCC[C@@](C)(C(=O)N[C@@H](CO)C(=O)N[C@@H](C)C(=O)N[C@@H](C)C(N)=O)NC(=O)[C@H](CC2CCC2)NC(=O)[C@H](CCC(N)=O)NC(=O)[C@H](C)NC(=O)[C@H](Cc2c[nH]c3ccccc23)NC(=O)[C@H](Cc2ccc(O)cc2)NC(=O)[C@H](CCC(=O)O)NC1=O [MP-1184] (Ac-[Lys(N3)][βAla]LWF[R8]EYWAQ[Cba][S5]SAA-NH2; staple 6-13)	360	239	> 50000		3.21	28.5 (≈ 58.6 µg/mL)						
CC(=O)N[C@@H](CCCCN=[N+]=[N-])C(=O)NCCC(=O)N[C@@H](CCCNC(=N)N)C(=O)N[C@@H](Cc1ccc(O)cc1)C(=O)N[C@@H](Cc1ccccc1)C(=O)N[C@]1(C)CCCCCCC=CCCC[C@@](C)(C(=O)N[C@@H](CO)C(=O)N[C@@H](C)C(=O)N[C@@H](Cc2ccccc2)C(N)=O)NC(=O)[C@H](CC2CCC2)NC(=O)[C@H](CCC(N)=O)NC(=O)[C@H](C)NC(=O)[C@H](Cc2c[nH]c3ccccc23)NC(=O)[C@H](Cc2ccc(O)cc2)NC(=O)[C@H](CCC(=O)O)NC1=O [MP-5546] (Ac-[Lys(N3)][βAla]RYF[R8]EYWAQ[Cba][S5]SAF-NH2; staple 6-13)	511	256	> 50600		3.2	2 (≈ 4.3 µg/mL)						
CC(C)C[C@@H]1NC(=O)[C@H](C)NC(=O)[C@H](Cc2c[nH]c3ccccc23)NC(=O)[C@H](Cc2ccc(O)cc2)NC(=O)[C@H](CCC(=O)O)NC(=O)[C@](C)(NC(=O)[C@H](Cc2ccccc2)NC(=O)[C@H](CO)NC(=O)[C@@H](NC(=O)[C@H](CO)NC(=O)CNC(=O)[C@H](CO)NC(=O)[C@@H](N)CCCCN=[N+]=[N-])[C@@H](C)O)CCCCCCC=CCCC[C@@](C)(C(N)=O)NC(=O)[C@H](CC(C)C)NC1=O [MP-75496]	518	236	> 50600		2.46	10 (≈ 18.1 µg/mL)						
